Tests used:
[1] = method code SF-HPLC, from DOI: 10.1016/s0021-9673(01)84554-4; details: for logD: pH 7.4

Row | SMILES | logD [1] | also measured
1 | COC(=O)C(Cc1ccccc1)NC(=O)C1(O)C(C)CC2C3CCC4=CC(=O)C=CC4(C)C3(F)C(O)CC21C (stereo unspecified) | 3.4 | –
2 | CC1CC2C3CCC4=CC(=O)C=CC4(C)C3(F)C(O)CC2(C)C1(O)C(=O)NCc1ccccc1 (stereo unspecified) | 3.28 | –
3 | CCCNCCNC(=O)C1(O)C(C)CC2C3CCC4=CC(=O)C=CC4(C)C3(F)C(O)CC21C (stereo unspecified) | – | logP [1]: 3.94
4 | CC1CC2C3CCC4=CC(=O)C=CC4(C)C3(F)C(O)CC2(C)C1(O)C(=O)NC(C)(C)C (stereo unspecified) | 3.2 | –
5 | CC1CC2C3CCC4=CC(=O)C=CC4(C)C3(F)C(O)CC2(C)C1(O)C(=O)NCCCCCCCCN (stereo unspecified) | – | logP [1]: 3.72
6 | CCOC(CNC(=O)C1(O)C(C)CC2C3CCC4=CC(=O)C=CC4(C)C3(F)C(O)CC21C)OCC (stereo unspecified) | 2.65 | –
7 | CC(C)NC(=O)C1(O)C(C)CC2C3CCC4=CC(=O)C=CC4(C)C3(F)C(O)CC21C (stereo unspecified) | 2.43 | –
8 | CC1CC2C3CCC4=CC(=O)C=CC4(C)C3(F)C(O)CC2(C)C1(O)C(=O)NC1CCCCC1 (stereo unspecified) | 3.54 | –
9 | CC1CC2C3CCC4=CC(=O)C=CC4(C)C3(F)C(O)CC2(C)C1(O)C(=O)NCCc1ccccc1 (stereo unspecified) | 3.66 | –
10 | CC1CC2C3CCC4=CC(=O)C=CC4(C)C3(F)C(O)CC2(C)C1(O)C(=O)NCCCCCCCCCN (stereo unspecified) | – | logP [1]: 4.13
11 | CC(C)CCCCNC(=O)C1(O)C(C)CC2C3CCC4=CC(=O)C=CC4(C)C3(F)C(O)CC21C (stereo unspecified) | – | logP: 3.91
12 | COc1cccc(CNC(=O)C2(O)CC3C4CCC5=CC(=O)C=CC5(C)C4(F)C(O)CC32C)c1 (stereo unspecified) | – | logP: 3.15
13 | CC1CC2C3CCC4=CC(=O)C=CC4(C)C3(F)C(O)CC2(C)C1(O)C(=O)NC(CO)c1ccccc1 (stereo unspecified) | 2.89 | –
14 | CC1CC2C3CCC4=CC(=O)C=CC4(C)C3(F)C(O)CC2(C)C1(O)C(=O)NCc1ccc([N+](=O)[O-])cc1 (stereo unspecified) | – | logP: 3.37
15 | CC1CC2C3CCC4=CC(=O)C=CC4(C)C3(F)C(O)CC2(C)C1(O)C(=O)NCCCCCCN (stereo unspecified) | – | logP [1]: 2.61
16 | CC1CC2C3CCC4=CC(=O)C=CC4(C)C3(F)C(O)CC2(C)C1(O)C(=O)NCC(=O)O (stereo unspecified) | – | logP [1]: 1.2
17 | CC1CC2C3CCC4=CC(=O)C=CC4(C)C3(F)C(O)CC2(C)C1(O)C(=O)NCc1ccc(Cl)cc1 (stereo unspecified) | – | logP: 3.71
18 | CC1CC2C3CCC4=CC(=O)C=CC4(C)C3(F)C(O)CC2(C)C1(O)C(=O)NCCCCCC(=O)O (stereo unspecified) | – | logP [1]: 2.29
19 | CC1CC2C3CCC4=CC(=O)C=CC4(C)C3(F)C(O)CC2(C)C1(O)C(=O)NCCCCN (stereo unspecified) | – | logP [1]: 2.3
20 | COc1ccc(CNC(=O)C2(O)C(C)CC3C4CCC5=CC(=O)C=CC5(C)C4(F)C(O)CC32C)cc1 (stereo unspecified) | – | logP: 3.04
21 | COc1ccccc1CNC(=O)C1(O)C(C)CC2C3CCC4=CC(=O)C=CC4(C)C3(F)C(O)CC21C (stereo unspecified) | – | logP: 3.09

Second part, led by results:

Row | logD [1] | SMILES | also measured
22 | 2.73 | CC1CC2C3CCC4=CC(=O)C=CC4(C)C3(F)C(O)CC2(C)C1(O)C(=O)NCCCl (stereo unspecified) | –
23 | 4.54 | CCCCCCNC(=O)C1(O)C(C)CC2C3CCC4=CC(=O)C=CC4(C)C3(F)C(O)CC21C (stereo unspecified) | –
24 | 1.41 | C[C@@H]1C[C@H]2[C@@H]3CCC4=CC(=O)C=C[C@]4(C)[C@@]3(F)[C@@H](O)C[C@]2(C)[C@@]1(O)C(N)=O | –
25 | 1.57 | CC1CC2C3CCC4=CC(=O)C=CC4(C)C3(F)C(O)CC2(C)C1(O)C(=O)NCC#N (stereo unspecified) | –
26 | 2 | C#CCNC(=O)C1(O)C(C)CC2C3CCC4=CC(=O)C=CC4(C)C3(F)C(O)CC21C (stereo unspecified) | –
27 | 2.07 | CCNC(=O)C1(O)C(C)CC2C3CCC4=CC(=O)C=CC4(C)C3(F)C(O)CC21C (stereo unspecified) | –
28 | 1.51 | CC1CC2C3CCC4=CC(=O)C=CC4(C)C3(F)C(O)CC2(C)C1(O)C(=O)NCCO (stereo unspecified) | –
29 | 3.1 | CCCCNC(=O)C1(O)C(C)CC2C3CCC4=CC(=O)C=CC4(C)C3(F)C(O)CC21C (stereo unspecified) | –
30 | 3.64 | CCCCCNC(=O)C1(O)C(C)CC2C3CCC4=CC(=O)C=CC4(C)C3(F)C(O)CC21C (stereo unspecified) | –
31 | 1.69 | COC(=O)CNC(=O)C1(O)C(C)CC2C3CCC4=CC(=O)C=CC4(C)C3(F)C(O)CC21C (stereo unspecified) | –
32 | 1.54 | CNC(=O)C1(O)C(C)CC2C3CCC4=CC(=O)C=CC4(C)C3(F)C(O)CC21C (stereo unspecified) | –
33 | 2.59 | CCCNC(=O)C1(O)C(C)CC2C3CCC4=CC(=O)C=CC4(C)C3(F)C(O)CC21C (stereo unspecified) | –
34 | 3.01 | CC(C)CNC(=O)C1(O)C(C)CC2C3CCC4=CC(=O)C=CC4(C)C3(F)C(O)CC21C (stereo unspecified) | –
35 | 3.93 | CC(C)CCCNC(=O)C1(O)C(C)CC2C3CCC4=CC(=O)C=CC4(C)C3(F)C(O)CC21C (stereo unspecified) | –
36 | 3.74 | CC(C)CCNC(=O)C1(O)C(C)CC2C3CCC4=CC(=O)C=CC4(C)C3(F)C(O)CC21C (stereo unspecified) | –

Reference: the SangsterLogP compilation
